Laboratory results from patent USRE35862E, “Delivery systems for pharmacological agents encapsulated with proteinoids” (Emisphere Technologies, Inc., priority 1994, dated 1998).
Where two headings read alike, the source gives them in different places.

Tests used:
[1] = test system: Time to coagulation (fibrin clot); test: Activated Partial Thromboplastin Time (APTT) test, Table 6 (Example 8b); format: in vivo, rat
Experimental: Seven male white rats, each weighing approximately 600 g, are deprived of food for 12 hours before the start of the experiment. Rat #1 receives no treatment. Rat #2 receives an intravenous injection of 250 mg of heparin in one ml of distilled water. […] The effect of heparin is determined using the Activated Partial Thromboplastin Time (APTT) test. This test measures the time necessary for a sample of […] taken from the tail vein to form a fibrin clot.

[2] = test system: coagulation time; conditions: oral, far larger doses per unit of body weight, unprotected, laboratory animals and humans; cited from earlier work
[3] = test system: blood glucose; conditions: oral, far larger dosages per unit of body weight, unprotected, laboratory animals and humans; cited from earlier work
[4] = test system: blood glucose
Experimental: Diabetes mellitis is induced in rats weighing approximately 300 g by giving each a 75 mg/kg body weight intravenous injection of streptozotocin. Ten rats which are observed to show consistently high blood glucose levels, polyuria and polydipsia and must be maintained on subcutaneous injections of porcine insulin are selected for this experiment.
The remaining six diabetic rats are arbitrarily assigned to three groups of two animals. […] The animals of the second and third groups receive subcutaneous injections of 0.25 mg (6.5 I.U.) and 0.125 mg (3.25 I.U.), respectively, of porcine insulin. Blood glucose measurements are made on all animals immediately before dosing and at intervals thereafter. The animal groups are crossed over twice at one week intervals, so that all of the animals receive each of the insulin treatments.

[5] = test system: blood glucose; test: Blood glucose in normal rats, Table 2 (Example 4); format: in vivo, rat; conditions: 1 ml/500 g by gavage
Experimental: Doses of the resulting suspension, which contain no insulin within the microspheres, are referred to as "microspheres with external insulin". Dosages of the 2.5 mg/ml solution of porcine insulin alone are referred to as "raw insulin".
Twelve male white rats, each weighing approximately 500 g and havinng a normal blood glucose level, are arbitrarily assigned to two groups of three animals and a third group of six animals. The three animals of group A are administered the insulin filled microspheres by gavage and the three animals of group B are similarly administered the microspheres with external insulin. The six animals of group C similarly receive the raw insulin. All dosages are 1 ml/500 g of body weight and all animals are tested for blood glucose immediately before dosage and at intervals thereafter.

[6] = test system: blood glucose; test: Blood glucose in normal rats, Table 1 (Example 2c); format: in vivo, rat; conditions: Group Four
Experimental: The Group Two rats have between 1.5 and 1.7 ml of the suspension similarly administered. The rats of Group Three receive 1.0 ml of distilled water similarly administered. The rats of Group Four similarly receive 25.0 mg of porcine insulin in 1.0 ml of distilled water. Both before and during the experiment, all animals are permitted free access to water and their normal feed. Blood glucose levels are measured on samples drawn from the tail at specific intervals after treatment and group averages are recorded in Table 1 as milligrams of glucose per deciliter of blood (mg/dl).

[7] = insulin in solution, even when refrigerated; cited from earlier work

## heparin
[1]; 1 hr, IV 250 mg
  Time to Coagulation in the APTT Test: 54 s
[1]; 2 hrs, IV 250 mg
  Time to Coagulation in the APTT Test: > 300 s
[1]; Predose, IV group, 250 mg
  Time to Coagulation in the APTT Test: 25 s
[2]
  increase in coagulation time: no detectable increase in coagulation time

## porcine insulin
[3]
  reduction of blood glucose levels: no detectable reduction of blood glucose levels
[4]; 0.5 hrs, 0.125 mg SC
  % Decrease from Baseline Blood Glucose: 5%
[4]; 0.5 hrs, 0.25 mg SC
  % Decrease from Baseline Blood Glucose: 28%
[4]; 1 hrs, 0.125 mg SC
  % Decrease from Baseline Blood Glucose: 17%
[4]; 1 hrs, 0.25 mg SC
  % Decrease from Baseline Blood Glucose: 55%
[4]; 1.5 hrs, 0.125 mg SC
  % Decrease from Baseline Blood Glucose: 27%
[4]; 1.5 hrs, 0.25 mg SC
  % Decrease from Baseline Blood Glucose: 72%
[4]; 2 hrs, 0.125 mg SC
  % Decrease from Baseline Blood Glucose: 45%
[4]; 2 hrs, 0.25 mg SC
  % Decrease from Baseline Blood Glucose: 77%
[4]; 3 hrs, 0.125 mg SC
  % Decrease from Baseline Blood Glucose: 47%
[4]; 3 hrs, 0.25 mg SC
  % Decrease from Baseline Blood Glucose: 84%
[4]; 4 hrs, 0.125 mg SC
  % Decrease from Baseline Blood Glucose: 29%
[4]; 4 hrs, 0.25 mg SC
  % Decrease from Baseline Blood Glucose: 79%
[4]; 6 hrs, 0.125 mg SC
  % Decrease from Baseline Blood Glucose: 8%
[4]; 6 hrs, 0.25 mg SC
  % Decrease from Baseline Blood Glucose: 34%
[4]; 8 hrs, 0.125 mg SC
  % Decrease from Baseline Blood Glucose: -8%
[4]; 8 hrs, 0.25 mg SC
  % Decrease from Baseline Blood Glucose: 4%
[4]; 12 hrs, 0.125 mg SC
  % Decrease from Baseline Blood Glucose: -8%
[4]; 12 hrs, 0.25 mg SC
  % Decrease from Baseline Blood Glucose: 3%
[4]; 24 hrs, 0.125 mg SC
  % Decrease from Baseline Blood Glucose: -8%
[4]; 24 hrs, 0.25 mg SC
  % Decrease from Baseline Blood Glucose: -7%
[4]; 48 hrs, 0.125 mg SC
  % Decrease from Baseline Blood Glucose: -8%
[4]; 48 hrs, 0.25 mg SC
  % Decrease from Baseline Blood Glucose: -5%
[5]; 0 hrs
  Blood Glucose: 92.7 mg/dL
[5]
  effect on blood glucose levels: no significant effect
[5]; 1 hrs
  Blood Glucose: 98.2 mg/dL
[5]; 2 hrs
  Blood Glucose: 95.8 mg/dL
[5]; 3 hrs
  Blood Glucose: 86.2 mg/dL
[5]; 4 hrs
  Blood Glucose: 91 mg/dL
[5]; 6 hrs
  Blood Glucose: 89.8 mg/dL
[5]; 8 hrs
  Blood Glucose: 91 mg/dL
[5]; 12 hrs
  Blood Glucose: 92 mg/dL
[5]; 24 hrs
  Blood Glucose: 92 mg/dL
[5]; .5 hrs
  Blood Glucose: 95.5 mg/dL
[6]; 30 min, 25.0 mg by gavage
  Ave. Blood Glucose: 120 mg/dL
[6]; 1 hr, 25.0 mg by gavage
  Ave. Blood Glucose: 120 mg/dL
[6]; 1.5 hr, 25.0 mg by gavage
  Ave. Blood Glucose: 124 mg/dL
[6]; 2 hr, 25.0 mg by gavage
  Ave. Blood Glucose: 120 mg/dL
[6]; 3 hr, 25.0 mg by gavage
  Ave. Blood Glucose: 116 mg/dL
[6]; 4 hr, 25.0 mg by gavage
  Ave. Blood Glucose: 111 mg/dL
[6]; 6 hr, 25.0 mg by gavage
  Ave. Blood Glucose: 123 mg/dL
[6]; Predose, 25.0 mg in 1.0 ml water by gavage
  Ave. Blood Glucose: 113 mg/dL

## insulin
[7]
  degradation in solution: degrade within a few days

## bovine insulin
[3]
  reduction of blood glucose levels: no detectable reduction of blood glucose levels
